# Like-named read-outs stand apart in the source and are kept apart here.
# Assays:
# [1] = intranasal, formulations containing cyclodextrins, rabbits; cited from earlier work
# GTN-induced migraine = conditions: cited from earlier work
# [2] = nasal spray, cited from earlier work
# [3] = human, in vivo, inhaled or intranasal
# Procedure: In this study, the fraction absorbed nasally was calculated by preventing absorption via the GI tract through the use of charcoal.
# [4] = rat, in vivo; cited from earlier work
# allergic rhinitis = conditions: intranasal, humans; cited from earlier work
# [5] = cited from earlier work
# [6] = in vivo; cited from earlier work
compound,measurement,setting,value
CN1C[C@H](C(=O)N[C@]2(C)O[C@@]3(O)[C@@H]4CCCN4C(=O)[C@H](Cc4ccccc4)N3C2=O)C[C@@H]2c3cccc4[nH]cc(c34)C[C@H]21 [dihydroergotamine],"Tmax, powder versus liquid formulations",[1],broadly comparable
CNS(=O)(=O)Cc1ccc2[nH]cc(CCN(C)C)c2c1 [sumatriptan],time to reversal of GTN-induced excess of theta (more than 15%) after treatment,GTN-induced migraine; studies by others,≤ 30 min
CN(C)CCc1c[nH]c2ccc(C[C@H]3COC(=O)N3)cc12 [zolmitriptan],fraction of nasal absorption,[2]; GI absorption prevented with charcoal,about 30%
same,total BA,[2],about 40%
same,ratio of nasal absorption fraction to total bioavailability (BA),[3],about 0.75
salmon calcitonin,"Tmax, powder versus liquid formulations",[4],no apparent difference
O=C(O)c1cc(=O)c2c(OCC(O)COc3cccc4oc(C(=O)O)cc(=O)c34)cccc2o1 [sodium cromoglycate],"effectiveness, powder versus solution formulation",allergic rhinitis,somewhat more effective
"O=[N+]([O-])OCC(CO[N+](=O)[O-])O[N+](=O)[O-] [GTN, glyceryltrinitrate]",subjects with a history of migraine in whom migraine is expected to be induced,GTN-induced migraine; GTN challenge,75%
elcatonin,"bio-availability in vivo, powder formulation versus liquid",[5],greater bio-availability
calcitonin,"absorption, liquid versus powder formulations",[6],comparable
